As a reminder, the Km is the concentration of substrate that gives half-maximal velocity.

These results are taken from US9410182B2, “Phosphatase coupled glycosyltransferase assay” (Bio-Techne Corporation, priority 2010, dated 2016).

Holding throughout (format): biochemical
The target in assay [1] is T1, CD73 (Homo sapiens, UniProt P21589).
T1 construct: purchased R&D Systems
T1 sequence (P21589 27-549): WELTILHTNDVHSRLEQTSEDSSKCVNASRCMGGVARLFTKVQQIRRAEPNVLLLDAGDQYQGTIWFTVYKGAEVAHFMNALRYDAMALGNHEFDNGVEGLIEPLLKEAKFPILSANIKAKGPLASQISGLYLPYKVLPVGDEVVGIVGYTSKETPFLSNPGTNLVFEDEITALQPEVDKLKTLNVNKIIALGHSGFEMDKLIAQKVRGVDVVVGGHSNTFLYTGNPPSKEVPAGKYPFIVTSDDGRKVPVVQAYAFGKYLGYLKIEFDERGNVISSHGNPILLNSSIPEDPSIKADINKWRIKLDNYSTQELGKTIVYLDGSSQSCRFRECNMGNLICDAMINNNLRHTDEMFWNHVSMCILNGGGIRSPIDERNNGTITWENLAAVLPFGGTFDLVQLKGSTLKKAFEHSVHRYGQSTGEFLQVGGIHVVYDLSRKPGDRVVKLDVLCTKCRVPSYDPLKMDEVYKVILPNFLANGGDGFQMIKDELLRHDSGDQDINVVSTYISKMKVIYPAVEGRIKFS
In words: Phosphate release from CMP by CD73, malachite green detection. Conditions: 0.1 μg CD73, up to 10 nmol nucleotide, 15 minutes, room temperature. The source says:
(§1) The GDP-Fucose, UDP-Glucose, CMP-NeuAc, CMP, UDP and GDP used in the following experiments were obtained from Sigma-Aldrich (St Louis, Mo.). The recombinant human Fut7, ST6Gal1, CD73, CD39L3, non-specific alkaline phosphatase TNAP, recombinant Clostridium Difficile toxin B (TcdB) containing the glycosyltransferase domain and Malachite Green Phosphate Detection Kit were obtained from R&D Systems (Minneapolis, Minn.). The 3′-Sialyl-N-acetyllactosamine was obtained from V-LABS, Inc (Convington, La.). Unless otherwise specified, each glycosyltransferase reaction was performed in 50 μL of a buffer of 25 mM Tris, 150 mM NaCl, 5 mM MgCl2 and 5 mM MnCl2, at pH 7.5 in a 96-well plate at room temperature for 20 minutes. To determine kinetic parameters of each glycosyltransferase, multiple reactions with varied amounts of either glycosyltransferase or substrates were preceded simultaneously in the presence of fixed amounts of all other components, including a phosphatase. A well containing all components except glycosyltransferase served as a blank control for each example. […] The plate was then read at 620 nm with a multi-well plate reader.
(§2) UDP, GDP and CMP are common donors in glycosyltransferase reactions. […] In FIG. 4C, it can be seen that TNAP, at 0.1 μg level, could only quantitatively release phosphate up to 2 nmol of nucleotide input. […]

Assay [2] deals with T2, TNAP (Homo sapiens, UniProt P05186).
T2 construct: purchased R&D Systems
T2 sequence (P05186 18-501): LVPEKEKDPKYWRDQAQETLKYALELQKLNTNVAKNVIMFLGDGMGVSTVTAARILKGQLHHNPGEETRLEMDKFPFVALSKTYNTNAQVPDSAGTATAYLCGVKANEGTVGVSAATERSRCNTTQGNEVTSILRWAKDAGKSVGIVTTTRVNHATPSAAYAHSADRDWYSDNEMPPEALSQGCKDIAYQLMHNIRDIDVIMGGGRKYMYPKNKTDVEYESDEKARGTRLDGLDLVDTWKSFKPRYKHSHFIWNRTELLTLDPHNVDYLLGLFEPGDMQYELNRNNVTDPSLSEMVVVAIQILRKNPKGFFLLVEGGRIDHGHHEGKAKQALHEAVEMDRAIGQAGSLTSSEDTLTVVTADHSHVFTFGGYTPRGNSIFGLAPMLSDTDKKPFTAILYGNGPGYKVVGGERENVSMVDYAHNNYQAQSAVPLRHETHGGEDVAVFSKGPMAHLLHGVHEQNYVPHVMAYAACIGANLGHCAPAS
In words: Phosphate release from UDP, GDP and CMP by TNAP, malachite green detection. The following applies: 1 μg TNAP, up to 10 nmol nucleotide.
Text: as §1, §2

In assay [3] the target is T3, CD39L3 (Homo sapiens, UniProt O75355).
T3 construct: purchased R&D Systems
T3 sequence (O75355 1-529): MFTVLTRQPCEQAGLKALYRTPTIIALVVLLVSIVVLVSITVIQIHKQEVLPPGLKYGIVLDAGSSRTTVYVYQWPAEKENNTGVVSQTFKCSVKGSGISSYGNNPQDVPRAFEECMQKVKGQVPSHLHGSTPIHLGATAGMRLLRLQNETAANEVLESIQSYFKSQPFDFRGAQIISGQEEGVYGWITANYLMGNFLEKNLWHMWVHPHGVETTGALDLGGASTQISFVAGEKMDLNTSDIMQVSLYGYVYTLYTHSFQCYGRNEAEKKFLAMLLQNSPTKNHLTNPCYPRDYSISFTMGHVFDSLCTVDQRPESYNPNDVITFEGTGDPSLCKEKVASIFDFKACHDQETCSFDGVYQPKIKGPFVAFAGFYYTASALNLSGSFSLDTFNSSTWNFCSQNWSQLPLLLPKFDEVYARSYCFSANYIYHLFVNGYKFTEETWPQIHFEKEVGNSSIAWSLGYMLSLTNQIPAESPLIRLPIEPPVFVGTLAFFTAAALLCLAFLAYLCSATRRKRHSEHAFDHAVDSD
In words: Phosphate release from UDP and GDP by CD39L3, malachite green detection. The following applies: 0.1 μg CD39L3, up to 10 nmol nucleotide, 15 minutes, room temperature.
Text: as §1, §2

In assay [4] the target is T4, ST6Gal 1 (Homo sapiens, UniProt P15907).
T4 construct: purchased R&D Systems
T4 sequence (P15907 1-406): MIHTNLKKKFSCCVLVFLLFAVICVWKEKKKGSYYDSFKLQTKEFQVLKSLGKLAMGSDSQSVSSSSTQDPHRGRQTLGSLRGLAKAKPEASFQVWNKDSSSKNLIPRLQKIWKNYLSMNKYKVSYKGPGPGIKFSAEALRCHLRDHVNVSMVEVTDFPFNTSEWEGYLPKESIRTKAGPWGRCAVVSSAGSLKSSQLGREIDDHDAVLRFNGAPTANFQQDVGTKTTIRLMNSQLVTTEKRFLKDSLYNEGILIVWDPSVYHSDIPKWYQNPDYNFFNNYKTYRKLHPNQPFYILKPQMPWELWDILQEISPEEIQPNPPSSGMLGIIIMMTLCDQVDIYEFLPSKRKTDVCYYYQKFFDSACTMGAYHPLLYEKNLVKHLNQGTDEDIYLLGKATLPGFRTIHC
In words: Sialyltransferase activity of ST6Gal 1 assayed with CD73. Conditions: for specific activity of ST6Gal 1 against acceptor: 1 mM lactosamine or 4 mM lactose as acceptor, 1 mM CMP-NeuAc, 0.1 μg CD73. The source says: The GDP-Fucose, UDP-Glucose, CMP-NeuAc, CMP, UDP and GDP used in the following experiments were obtained from Sigma-Aldrich (St Louis, Mo.). The recombinant human Fut7, ST6Gal1, CD73, CD39L3, non-specific alkaline phosphatase TNAP, recombinant Clostridium Difficile toxin B (TcdB) containing the glycosyltransferase domain and Malachite Green Phosphate Detection Kit were obtained from R&D Systems (Minneapolis, Minn.). The 3′-Sialyl-N-acetyllactosamine was obtained from V-LABS, Inc (Convington, La.). Unless otherwise specified, each glycosyltransferase reaction was performed in 50 μL of a buffer of 25 mM Tris, 150 mM NaCl, 5 mM MgCl2 and 5 mM MnCl2, at pH 7.5 in a 96-well plate at room temperature for 20 minutes. To determine kinetic parameters of each glycosyltransferase, multiple reactions with varied amounts of either glycosyltransferase or substrates were preceded simultaneously in the presence of fixed amounts of all other components, including a phosphatase. A well containing all components except glycosyltransferase served as a blank control for each example. The reactions were stopped by adding 30 μL of Malachite Reagent A and 100 μL of water to each well. The color was developed by adding 30 μL of Malachite Reagent B to each well followed by gently tapping on the edge and incubation for 30 minutes. The plate was then read at 620 nm with a multi-well plate reader.
Sialic acid is negatively charged under normal pH conditions, making sialyltransferases more difficult to assay than other glycosyltransferases. Because both the donor and product are likely negatively charged, separating them by common ion exchange chromatography separation is challenging. In this experiment, ST6Gal 1, a sialyltransferase, was assayed using 0.1 μg CD73 in a 96-well plate. First, enzyme curves were obtained with either 1 mM lactosamine or 4 mM lactose as the acceptor in the presence of 1 mM CMP-NeuAc. The results are shown in FIG. 7, and the specific activities against lactosamine and lactose were determined to be 458 and 41 pmol/min/μg respectively, confirming that the enzyme strongly favors lactosamine structure. The apparent Km and Vmax were determined for one substrate while fixing the other by fitting the data to KaleidaGraph 4 program.

On to `Nc1ccn([C@@H]2O[C@H](COP(=O)(O)O)[C@@H](O)[C@H]2O)c(=O)n1` [CMP], for which the “dephosphorylation of nucleotide by CD73” value in assay [1] was “completely”. For the molecule `Nc1nc2c(ncn2[C@@H]2O[C@H](COP(=O)(O)OP(=O)(O)O)[C@@H](O)[C@H]2O)c(=O)[nH]1` [GDP], in assay [2], the “phosphate released from nucleotide by TNAP” value is “about two”. Moreover, the “phosphate released from nucleotide by CD39L3” value in assay [3] is “one”.

As to `OC[C@H]1O[C@@H](O[C@H]2[C@H](O)[C@@H](O)C(O)O[C@@H]2CO)[C@H](O)[C@@H](O)[C@H]1O` (stereo partly drawn) [lactose], the “specific activity of ST6Gal 1 against acceptor” value in assay [4] stood at 41 pmol/min/µg. In the case of `CC(=O)N[C@H]1[C@H]([C@H](O)[C@H](O)CO)O[C@](OP(=O)(O)OC[C@H]2O[C@@H](n3ccc(N)nc3=O)[C@H](O)[C@@H]2O)(C(=O)O)C[C@@H]1O` [CMP-NeuAc, CMP-N-Acetylneuraminic acid], the “apparent Vmax” value in assay [4] (donor varied, lactosamine fixed at 1 mM) is 710 ± 16 pmol/min/µg. Further, the Km in assay [4] (donor varied, lactosamine fixed at 1 mM, read-out: apparent Km) is 530 ± 40 µM. In the case of `O=c1ccn([C@@H]2O[C@H](COP(=O)(O)OP(=O)(O)O)[C@@H](O)[C@H]2O)c(=O)[nH]1` [UDP], the “phosphate released from nucleotide by TNAP” value in assay [2] is given as “about two”. In addition, the “phosphate released from nucleotide by CD39L3” value in assay [3] is listed as “one”. Regarding `N[C@H]1C(O)O[C@H](CO)[C@@H](O[C@@H]2O[C@H](CO)[C@H](O)[C@H](O)[C@H]2O)[C@@H]1O` (stereo partly drawn) [lactosamine], in assay [4], the “specific activity of ST6Gal 1 against acceptor” value came to 458 pmol/min/µg.
